Assay results as given in US20080253996A1, “Use of Sdf-1 for the Treatment and/or Prevention of Neurological Diseases” (LABORATORIES SERONO SA, priority 2005, published 2008).

Columns and labels:
Assay type in all cases: in vivo, rat
STZ-rats [1] = assay: STZ diabetic neuropathy, electromyography (CMAP latency, SNCV); conditions: D25 post-STZ (similar profile at D40), IL-6 10 μg/kg s.c.; for sensory nerve conduction velocity (SNCV) of diabetic rats: SDF-1α 10, 30, 100 μg/kg (best effect 10 and 30 μg/kg); for CMAP latency of diabetic rats vs vehicle-treated diabetic rats: SDF-1α 10, 30, 100 μg/kg
Description: (§1) Eight week-old male Sprague Dawley rats (Janvier, Le Genest Saint Isle, France) were randomly distributed in 6 experimental groups (n=10) as shown below.
(§2) Diabetes was induced by intravenous injection of a buffered solution of streptozotocin (Sigma, L'Isle d'Abeau Chesnes, France) at a dose of 55 mg/kg. STZ was prepared in 0.1 mol/l citrate buffer pH 4.5. Control group received an equivalent volume of citrate buffer. The day of STZ injection was considered as D0.
(§3) Treatment with SDF-1α, with IL-6 or their matched vehicle was performed on daily basis from D11 to D40.
Planning of Experiments • Day −7: baseline (EMG) • Day 0: induction by the streptozotocin • Day 7: glycemia monitoring • Day 11: Onset of the treatment • Day 20: Von Frey test • Day 25: EMG monitoring • Day 40: EMG monitoring and HP 52° C. test • Day 41: sciatic nerves and skin biopsy samples were taken off for the histomorphometric analysis.
Electrophysiological recordings were performed using electromyograph (Keypoint, Medtronic, Boulogne-Billancourt, France). Rats were anaesthetized by intraperitoneal injection (IP) of 60 mg/kg ketamine chlorhydrate (Imalgene 500®, Rhône Mérieux, Lyon. France) and 4 mg/kg xylazin (Rompum 2%, Bayer Pharma, Kiel, Germany). The normal body temperature was maintained at […] with a heating lamp and controlled by a contact thermometer (Quick, Bioblock Scientific, Illkirch, France) placed on the tail surface.
Compound muscle action potential (CMAP) was recorded in the gastrocnemius muscle after stimulation of the sciatic nerve. A reference electrode and an active needle were placed in the hindpaw. A ground needle was inserted on the lower back of the rat. Sciatic nerve was stimulated with a single 0.2 ms pulse at a supramaximal intensity. The velocity of the motor wave was recorded.
Sensitive nerve conduction velocity (SNCV) was also recorded. The tail skin electrodes were placed as follows: a reference needle inserted at the base of the tail and an anode needle placed 30 mm away from the reference needle towards the extremity of the tail. A ground needle electrode was inserted between the anode and reference needles. The caudal nerve was stimulated with a series of 20 pulses (for 0.2 ms) at an intensity of 12.8 mA. The velocity was expressed in m/s.
Global analysis of the data was performed using one factor or repeated measure analysis of variance (ANOVA) and one-way ANOVA. When ANOVA indicated significant difference, Fisher Protected Least Significant Difference was used as post-hoc test to compare experimental groups with the group of diabetic rats treated with the vehicle. The level of significance was set at p≦0.05. Results are expressed as mean ±standard error of the mean (s.e.m.).

STZ-rats [2] = assay: Von Frey filament test in STZ diabetic rats; conditions: day 20 post-STZ; SDF-1α 10, 30, 100 μg/kg, IL-6 10 μg/kg s.c.
Description: as §1
as §2, with “The control” for “Control”
Treatment with SDF-1α with IL-6 or their matched vehicle was performed on daily basis from D11 to D40.
The rat was placed on a metallic grid floor. The nociceptive testing was done by inserting the Von Frey filament (Bioseb, France) through the grid floor and applying it to the plantar surface of the hind paw. A trial consisted of several applications of the different von Frey filaments (at a frequency of 1-1.5 s). The Von Frey filaments were applied from filament 10 g to 180 g. The pressure that produces a brisk withdrawal of hind paw was considered as threshold value. Cuttoff value was set to 180 g.

[3] = Body weight in streptozotocin (STZ) diabetic rats; conditions: daily s.c. D11 to D40 post-STZ; SDF-1α 10, 30, 100 μg/kg, IL-6 10 μg/kg
Description: as §1, §2, §3

Substance	sensory nerve conduction velocity (SNCV) of diabetic rats (STZ-rats [1])	CMAP latency of diabetic rats vs vehicle-treated diabetic rats (STZ-rats [1])	threshold value in Von Frey test vs vehicle-treated diabetic rats (STZ-rats [2])	body weight of diabetic rats [3]
IL-6: reference (positive) control compound in nerve crush and STZ models [reference compound]	significantly improved	significant reduction	significant increase	slight but significant increase
SDF-1α: Human recombinant chemokine SDF-1α (SEQ ID NO: 1), produced in house, expressed in E. Coli cells	significantly improved	significant reduction	significant increase	slight but significant increase
